Measurements reported in PubChem BioAssay (NCI).
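All cell lines were grown in 96-well plates and treated with compound for 48 hours. The concentration for full growth arrest is given as TGI.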

How the values were obtained:
Experiment in all cases: inhibition of tumour cell growth, NCI panel, 48 h
MALME-3M melanoma = tested on: MALME-3M melanoma
LXFL 529 NSCLC = tested on: LXFL 529 NSCLC
SK-MEL-2 melanoma = tested on: SK-MEL-2 melanoma
OVCAR-5 ovarian = tested on: OVCAR-5 ovarian
UACC-257 melanoma = tested on: UACC-257 melanoma
SNB-75 CNS = tested on: SNB-75 CNS
SN12C renal = tested on: SN12C renal
LOX IMVI melanoma = tested on: LOX IMVI melanoma
NCI-H522 lung = tested on: NCI-H522 lung
UACC-62 melanoma = tested on: UACC-62 melanoma
SF-539 CNS = tested on: SF-539 CNS
CCRF-CEM leukemia = tested on: CCRF-CEM leukemia
EKVX NSCLC = tested on: EKVX NSCLC
SK-MEL-5 melanoma = tested on: SK-MEL-5 melanoma
HOP-18 NSCLC = tested on: HOP-18 NSCLC
HOP-92 NSCLC = tested on: HOP-92 NSCLC
XF 498 CNS = tested on: XF 498 CNS
NCI-H23 lung = tested on: NCI-H23 lung
SK-MEL-28 melanoma = tested on: SK-MEL-28 melanoma
SR leukemia = tested on: SR leukemia
DMS 273 small cell lung = tested on: DMS 273 small cell lung
RXF 393 renal = tested on: RXF 393 renal
HOP-62 NSCLC = tested on: HOP-62 NSCLC
IGROV1 ovarian = tested on: IGROV1 ovarian
MOLT-4 leukemia = tested on: MOLT-4 leukemia
OVCAR-3 ovarian = tested on: OVCAR-3 ovarian
ACHN renal = tested on: ACHN renal
HCT-116 colon = tested on: HCT-116 colon
KM12 colon = tested on: KM12 colon
HCC-2998 colon = tested on: HCC-2998 colon
A498 renal = tested on: A498 renal
SNB-19 CNS = tested on: SNB-19 CNS
NCI-H226 lung = tested on: NCI-H226 lung
SF-295 CNS = tested on: SF-295 CNS
SF-268 CNS = tested on: SF-268 CNS
DLD-1 colon = tested on: DLD-1 colon
786-0 renal = tested on: 786-0 renal
M14 melanoma = tested on: M14 melanoma
NCI-H460 lung = tested on: NCI-H460 lung
OVCAR-4 ovarian = tested on: OVCAR-4 ovarian
TK-10 renal = tested on: TK-10 renal
KM20L2 colon = tested on: KM20L2 colon
UO-31 renal = tested on: UO-31 renal
SK-OV-3 ovarian = tested on: SK-OV-3 ovarian
K-562 leukemia = tested on: K-562 leukemia
SW-620 colon = tested on: SW-620 colon
COLO 205 colon = tested on: COLO 205 colon
A549 NSCLC = tested on: A549 NSCLC
HCT-15 colon = tested on: HCT-15 colon
CAKI-1 renal = tested on: CAKI-1 renal
OVCAR-8 ovarian = tested on: OVCAR-8 ovarian
HL-60(TB) leukemia = tested on: HL-60(TB) leukemia
U251 CNS = tested on: U251 CNS
SNB-78 CNS = tested on: SNB-78 CNS
DMS 114 small cell lung = tested on: DMS 114 small cell lung
HT29 colon = tested on: HT29 colon
RPMI-8226 leukemia = tested on: RPMI-8226 leukemia
M19-MEL melanoma = tested on: M19-MEL melanoma

Cc1cc([N+](=O)[O-])ccc1Sc1c2ccccc2nc2ccccc12 was tested, and the TGI (MALME-3M melanoma) was > 100 µM, the TGI (LXFL 529 NSCLC) was 45.5 µM and the TGI (SK-MEL-2 melanoma) was 55.9 µM. For the same compound, the TGI (OVCAR-5 ovarian) was > 100 µM, the TGI (UACC-257 melanoma) was 71.3 µM and the TGI (SNB-75 CNS) was > 100 µM. The TGI (SN12C renal) was 93.3 µM, the TGI (LOX IMVI melanoma) was 38.6 µM and the TGI (NCI-H522 lung) was 38.9 µM. It also gave a TGI (UACC-62 melanoma) of 66.8 µM, a TGI (SF-539 CNS) of 56.5 µM and a TGI (CCRF-CEM leukemia) of 79.5 µM. The TGI (EKVX NSCLC) was > 100 µM, the TGI (SK-MEL-5 melanoma) was > 100 µM and the TGI (HOP-18 NSCLC) was > 100 µM. For the same compound, the TGI (HOP-92 NSCLC) was 98.2 µM, the TGI (XF 498 CNS) was 50 µM and the TGI (NCI-H23 lung) was 79.2 µM. For the same compound, the TGI (SK-MEL-28 melanoma) was > 100 µM, the TGI (SR leukemia) was 70.1 µM and the TGI (DMS 273 small cell lung) was > 100 µM. For the same compound, the TGI (RXF 393 renal) was > 100 µM, the TGI (HOP-62 NSCLC) was > 100 µM and the TGI (IGROV1 ovarian) was > 100 µM. For the same compound, the TGI (MOLT-4 leukemia) was 73.1 µM, the TGI (OVCAR-3 ovarian) was > 100 µM and the TGI (ACHN renal) was > 100 µM. The TGI (HCT-116 colon) was 66.6 µM, the TGI (KM12 colon) was 32.7 µM and the TGI (HCC-2998 colon) was 56.1 µM. For the same compound, the TGI (A498 renal) was > 100 µM, the TGI (SNB-19 CNS) was > 100 µM and the TGI (NCI-H226 lung) was > 100 µM. The TGI (SF-295 CNS) was > 100 µM, the TGI (SF-268 CNS) was > 100 µM and the TGI (DLD-1 colon) was > 100 µM. For the same compound, the TGI (786-0 renal) was 55.5 µM, the TGI (M14 melanoma) was > 100 µM and the TGI (NCI-H460 lung) was > 100 µM. For the same compound, the TGI (OVCAR-4 ovarian) was > 100 µM, the TGI (TK-10 renal) was > 100 µM and the TGI (KM20L2 colon) was 89.8 µM. For the same compound, the TGI (UO-31 renal) was > 100 µM, the TGI (SK-OV-3 ovarian) was > 100 µM and the TGI (K-562 leukemia) was > 100 µM. For the same compound, the TGI (SW-620 colon) was > 100 µM, the TGI (COLO 205 colon) was > 100 µM and the TGI (A549 NSCLC) was > 100 µM. It also gave a TGI (HCT-15 colon) of 57.2 µM, a TGI (CAKI-1 renal) of 97.3 µM and a TGI (OVCAR-8 ovarian) of 84.4 µM. For the same compound, the TGI (HL-60(TB) leukemia) was 49.1 µM and the TGI (U251 CNS) was 78.9 µM.

For O=C(Nc1ccc(Cl)c(Cl)c1)C(=O)C(C(=O)c1ccccc1F)C1OC(=O)c2ccccc21 (configuration not stated), the TGI (LXFL 529 NSCLC) was > 100 µM, the TGI (SK-MEL-2 melanoma) was 38.2 µM and the TGI (OVCAR-5 ovarian) was > 100 µM. For the same compound, the TGI (UACC-257 melanoma) was > 100 µM, the TGI (SNB-75 CNS) was 58.8 µM and the TGI (SN12C renal) was 60.2 µM. For the same compound, the TGI (LOX IMVI melanoma) was 50.4 µM, the TGI (NCI-H522 lung) was 27.3 µM and the TGI (UACC-62 melanoma) was 28.3 µM. It also gave a TGI (SF-539 CNS) of 28.1 µM, a TGI (CCRF-CEM leukemia) of 50.9 µM and a TGI (EKVX NSCLC) of 68.6 µM. The TGI (SK-MEL-5 melanoma) was 35.9 µM, the TGI (HOP-92 NSCLC) was > 100 µM and the TGI (XF 498 CNS) was 79.5 µM. For the same compound, the TGI (NCI-H23 lung) was 75.9 µM, the TGI (SK-MEL-28 melanoma) was 75.2 µM and the TGI (SR leukemia) was > 100 µM. For the same compound, the TGI (DMS 273 small cell lung) was 46.9 µM, the TGI (RXF 393 renal) was 41.8 µM and the TGI (HOP-62 NSCLC) was 76.2 µM. The TGI (IGROV1 ovarian) was > 100 µM, the TGI (MOLT-4 leukemia) was > 100 µM and the TGI (ACHN renal) was > 100 µM. It also gave a TGI (HCT-116 colon) of 30.4 µM, a TGI (SNB-78 CNS) of 73.1 µM and a TGI (KM12 colon) of 37 µM. The TGI (HCC-2998 colon) was 32.7 µM, the TGI (A498 renal) was > 100 µM and the TGI (SNB-19 CNS) was 47.8 µM. For the same compound, the TGI (NCI-H226 lung) was 43.7 µM, the TGI (SF-295 CNS) was > 100 µM and the TGI (SF-268 CNS) was 92.1 µM. For the same compound, the TGI (DMS 114 small cell lung) was 46.4 µM, the TGI (HT29 colon) was 88.8 µM and the TGI (DLD-1 colon) was > 100 µM. For the same compound, the TGI (M14 melanoma) was 34.3 µM, the TGI (NCI-H460 lung) was 43.8 µM and the TGI (OVCAR-4 ovarian) was > 100 µM. The TGI (TK-10 renal) was 93.8 µM, the TGI (KM20L2 colon) was 55.1 µM and the TGI (UO-31 renal) was 37.2 µM. For the same compound, the TGI (SK-OV-3 ovarian) was 69.9 µM, the TGI (K-562 leukemia) was > 100 µM and the TGI (SW-620 colon) was 62.3 µM. The TGI (COLO 205 colon) was 33.1 µM, the TGI (A549 NSCLC) was 81.4 µM and the TGI (RPMI-8226 leukemia) was 55.9 µM. For the same compound, the TGI (HCT-15 colon) was 35.5 µM, the TGI (CAKI-1 renal) was 80.2 µM and the TGI (OVCAR-8 ovarian) was 28.5 µM. It also gave a TGI (HL-60(TB) leukemia) of 41.2 µM, a TGI (M19-MEL melanoma) of 41.7 µM and a TGI (U251 CNS) of 28.1 µM.
